Source: ChEMBL document CHEMBL5500405, “Design and Synthesis of Clinical Candidate PF-06852231 (CVL-231): A Brain Penetrant, Selective, Positive Allosteric Modulator of the M4 Muscarinic Acetylcholine Receptor” (J Med Chem, 2024)
One block for each compound: values may come before it.

What was measured:
[1] = Lipophilicity, logD of compound by shake flask method; format: physicochemical; conditions: octanol/water
[2] = Stability of compound at pH 1 assessed as half-life by 1H NMR assay; format: physicochemical; conditions: buffer
[3] = Unbound plasma concentration in mouse at 1 mg/kg, sc; format: ADME, organism-based; conditions: in vivo
[4] = Unbound brain concentration in mouse at 10 mg/kg, sc; format: ADME, organism-based; conditions: in vivo
[5] = Unbound brain concentration in mouse at 1 mg/kg, sc; format: ADME, organism-based; conditions: in vivo
[6] = Unbound plasma concentration in mouse at […], sc; format: ADME, organism-based; conditions: in vivo, dose 3.2 mg/kg
[7] = Unbound plasma concentration in mouse at 10 mg/kg, sc; format: ADME, organism-based; conditions: in vivo
[8] = Unbound brain concentration in mouse at 32 mg/kg, sc; format: ADME, organism-based; conditions: in vivo
[9] = Unbound brain concentration in mouse at […], sc; format: ADME, organism-based; conditions: in vivo, dose 3.2 mg/kg
[10] = Unbound plasma concentration in mouse at 32 mg/kg, sc; format: ADME, organism-based; conditions: in vivo

logD [1]: 1.84
SMILES: Cc1cc(C)c2c(n1)CN(C(=O)CC1CC1)C2

half-life [2]: 9 min
SMILES: Cc1cc(C)c2c(n1)CN(C(=O)CC1CN(c3ccccc3)C1)C2

Cp(f) [3]: 26 nM | Drug uptake(free) [4]: 105 nM | Drug uptake(free) [5]: 13 nM | Cp(f) [6]: 47 nM | Cp(f) [7]: 219 nM | Drug uptake(free) [8]: 240 nM | Drug uptake(free) [9]: 22 nM | Cp(f) [10]: 480 nM
SMILES: Cc1cc(C)c2c(n1)CN(C(=O)CC1CN(c3ccnc(C(F)(F)F)c3)C1)C2 [EMRACLIDINE]
